Measured values as given in article PMC7942396, “Drug Repurposing Screen for Compounds Inhibiting the Cytopathic Effect of SARS-CoV-2” (Frontiers in Pharmacology, 2021).
Read-outs that look alike come from different tables or passages of the source. Where a SMILES comes first, the peptide text is derived from it. The star is where a group is joined. Cbz = O=C(OCc1ccccc1)*; CH2Cl = ClC*

How the values were obtained:
[1] = system: SARS-CoV-2 (USA_WA1/2020); test: microbe, parasite or virus in culture; type: cell-based; details: for EC50: read-out: CPE EC50
[2] = in vitro; details: African green monkey
[3] = system: Vero E6 cells; details: Vero E6 cells without virus; for CC50: read-out: Cytotox CC50
[4] = Severe acute respiratory syndrome coronavirus 2, Vero C1008, SARS-CoV-2 CPE assay, Vero E6 cells, confirmed anti-SARS-CoV-2 compounds
[5] = Severe acute respiratory syndrome coronavirus 2, Vero C1008, SARS-CoV-2 CPE assay, Vero E6 cells, efficacy, read-out: CPE % Efficacy
[6] = Severe acute respiratory syndrome coronavirus 2, Vero C1008, 72 h
[7] = Severe acute respiratory syndrome coronavirus 2, Vero C1008, […], DMSO 0%, no-virus control 100%, hit confirmation, read-out: CPE % efficacy
[8] = Severe acute respiratory syndrome coronavirus 2, Vero C1008, SARS-CoV-2 CPE assay, Vero E6 cells, read-out: CPE % Efficacy
[9] = Severe acute respiratory syndrome coronavirus 2, Vero C1008, SARS-CoV-2 CPE assay, Vero E6 cells
[10] = SARS-CoV-2 CPE assay, Vero E6 cells
[11] = […], DMSO 0%, no-virus control 100%, hit confirmation
[12] = SARS-CoV-2 CPE assay, Vero E6 cells, confirmed anti-SARS-CoV-2 compounds
[13] = SARS-CoV-2 CPE assay, Vero E6 cells, efficacy

**Q.** For CC(C)COCC(CN(Cc1ccccc1)c1ccccc1)N1CCCC1 (stereo not shown) [Bepridil], which EC50 [1, 4] is on record?
**A.** 11.2 µM

**Q.** And the Emax [1, 5]?
**A.** 113%

**Q.** What about the CC50 [2] of the same molecule?
**A.** 22.4 µM

**Q.** What about the cytotoxicity [2] of the same molecule?
**A.** 25.4%

**Q.** Which “Shape of concentration-response in the CPE assay” value ([1]; Figure 3) does the source give for CNCc1ccc(-c2cc(-c3nc(-c4ccc(S(=O)(=O)C(C)C)cc4)cnc3N)on2)cc1 [Berzosertib, reference compound] here?
**A.** bell-shaped concentration-responses due to cytotoxicity

**Q.** And the EC50 [1, 6]?
**A.** 0.71 µM

**Q.** And the Emax [1, 7]?
**A.** 87.9%

**Q.** What about the CC50 at 72 h [2] of the same molecule?
**A.** 11.2 µM

**Q.** What does the source list for c1ccc(-c2ccc(C(c3ccccc3)n3ccnc3)cc2)cc1 (stereo not shown) [Bifonazole]?
**A.** EC50 [1, 4]: 10 µM; Emax [1, 5]: 36.4%; cytotoxicity [2]: 24.5%

**Q.** Which results are given for O=c1ccc2ccc(OCCCCN3CCN(c4cccc5sccc45)CC3)cc2[nH]1 [Brexpiprazole]?
**A.** Emax [1, 8]: 94.9%; EC50 [1, 9]: 14.1 µM; CC50 [2]: 11.2 µM; cytotoxicity [2]: 25.1%

**Q.** For CN(C)CCOC(c1ccccc1)c1ccc(Br)cc1 (stereo not shown) [Bromodiphenhydramine], which Emax [1, 8] is on record?
**A.** 36%

**Q.** What about the EC50 [1, 9] of the same molecule?
**A.** 12.6 µM

**Q.** And the cytotoxicity at 72 h [2]?
**A.** 0%

**Q.** For COC(=O)[C@@]12OC[C@]34[C@H]([C@@H](O)[C@@H]1O)[C@@]1(C)CC(=O)C(O)=C(C)[C@@H]1C[C@H]3OC(=O)[C@H](OC(=O)/C=C(\C)C(C)C)[C@@H]24 [Bruceantin], which EC50 [1, 4] is on record?
**A.** 0.0319 µM

**Q.** What about the Emax [1, 5] of the same molecule?
**A.** 42.5%

**Q.** What about the CC50 [2] of the same molecule?
**A.** 0.14 µM

**Q.** And the cytotoxicity [2]?
**A.** 83.3%

**Q.** For COc1ccc2c(c1)[C@]1(C[C@H]1c1ccc3c(/C=C/c4ccc(CN5C[C@@H](C)O[C@@H](C)C5)cc4)n[nH]c3c1)C(=O)N2 [CFI-400945], which EC50 [1, 4] is on record?
**A.** 11.2 µM

**Q.** And the Emax [1, 5]?
**A.** 77.8%

**Q.** And the cytotoxicity at 72 h [2]?
**A.** 31.4%

**Q.** For Cn1c(Nc2ccc(C(F)(F)F)cc2)nc2cc(Oc3ccnc(-c4ncc(C(F)(F)F)[nH]4)c3)ccc21 [CHIR-265], which EC50 [1, 4] is on record?
**A.** 0.79 µM

**Q.** What about the Emax [1, 5] of the same molecule?
**A.** 31.7%

**Q.** And the CC50 [2]?
**A.** 0.32 µM

**Q.** And the cytotoxicity [2]?
**A.** 92.7%

**Q.** What does the source list for COc1c(C)cnc(Cn2cnc3c(Cl)nc(N)nc32)c1C [CNF-2024]?
**A.** EC50 [1, 4]: 2.24 µM; Emax [1, 5]: 51.3%; CC50 [2]: 0.35 µM; cytotoxicity [2]: 21.1%

**Q.** With CN(C)c1cc2c(cc1Sc1nc3c(N)nccc3n1CCNCC(C)(C)C)OCO2 [CUDC-305] as the molecule, how does the EC50 [1, 4] read?
**A.** 2.51 µM

**Q.** What about the Emax [1, 5] of the same molecule?
**A.** 74.5%

**Q.** What about the CC50 at 72 h [2] of the same molecule?
**A.** 0.71 µM

**Q.** What about the cytotoxicity at 72 h [2] of the same molecule?
**A.** 27.7%

**Q.** Which results are given for CCCC[C@@H](C=O)NC(=O)[C@H](CC(C)C)NC(=O)OCc1ccccc1 [Calpeptin, reference compound]?
**A.** EC50 [1, 6]: 0.5 µM; Emax [1, 7]: 112%; cytotoxicity [2]: < 30%

**Q.** Which cytotoxicity [2] does the source give for Clc1ccc2c(c1)CCc1cccnc1C2=C1CCNCC1 [Desloratadine] here?
**A.** 14.2%

**Q.** With COc1cc(N2CCN(C)CC2)ccc1Nc1ncc2c(n1)N(C)c1ccccc1C(=O)N2 [XMD8-87] as the molecule, how does the “CPE % Efficacy” value [1, 10] read?
**A.** 88.0%

**Q.** And the EC50 [1, 10]?
**A.** 11.2 µM

**Q.** What about the “% Cytotox” value ([3]; cytotoxicity counter-assay) of the same molecule?
**A.** 32.0%

**Q.** Which “CPE % Efficacy” value [1, 10] does the source give for Cc1nc2ccc(Oc3ccc(F)cc3)cc2c(=O)n1C[C@H]1CCCN(C(C)C)C1 [YIL 781] here?
**A.** 53.5%

**Q.** What about the EC50 [1, 10] of the same molecule?
**A.** 11.2 µM

**Q.** What about the “% Cytotox” value ([3]; cytotoxicity counter-assay) of the same molecule?
**A.** 0.0%

**Q.** Which results are given for CC(NC(=O)[C@H](Cc1ccccc1)NC(=O)OCc1ccccc1)C(=O)CF (stereo partly shown) [Z-FA-FMK, reference compound]?
**A.** CPE % Efficacy [1, 11]: 104.8%; EC50 [1]: 0.13 µM; % Cytotox ([3]; 72 h): <30%

**Q.** What does the source list for CC(C)C[C@H](NC(=O)CNC(=O)OCc1ccccc1)C(=O)N[C@@H](Cc1ccccc1)C(=O)CCl [Z-Gly-Leu-Phe-chloromethyl ketone, reference compound] (Cbz-Gly-Leu-Phe-CH2Cl)?
**A.** CPE % Efficacy [1, 11]: 87.2%; EC50 [1]: 1.3 µM; % Cytotox ([3]; 72 h): <30%

**Q.** Which results are given for COc1cc2c(Nc3ccc(NC(=O)c4ccccc4)cc3)ncnc2cc1OCCCN1CCOCC1 [ZM-447439]?
**A.** CPE % Efficacy [1, 10]: 49.6%; EC50 [1, 10]: 14.1 µM; % Cytotox ([3]; cytotoxicity counter-assay): 38.3%; CC50 ([3]; cytotoxicity counter-assay): 12.6 µM

**Q.** What does the source list for CC1(CN2CCC(n3c(=O)[nH]c4ccccc43)CC2)OCc2ccccc2-n2cccc21.O=C(O)/C=C\C(=O)O (stereo not shown) [Zaldaride maleate]?
**A.** EC50 [1, 12]: 11.2 µM; CPE % Efficacy [1, 13]: 81.7%; % Cytotox ([3]; cytotoxicity counter-assay): 0.0%

**Q.** Which EC50 [1, 12] does the source give for O=C(CCC1CCN(Cc2ccccc2)CC1)c1ccc2c(c1)NCCCC2.O=C(O)/C=C/C(=O)O [Zanapezil fumerate] here?
**A.** 11.2 µM

**Q.** What about the “CPE % Efficacy” value [1, 13] of the same molecule?
**A.** 63.3%

**Q.** And the “% Cytotox” value ([3]; cytotoxicity counter-assay)?
**A.** 0.0%

**Q.** With O[C@@H]1[C@@H](O)[C@@H](O)CO[C@H]1O [alpha-L-Arabinopyranose, reference compound] as the molecule, how does the CPE % Efficacy [1, 11] read?
**A.** 104.0%

**Q.** What about the EC50 [1] of the same molecule?
**A.** 2.4 µM

**Q.** What about the “% Cytotox” value ([3]; 72 h) of the same molecule?
**A.** <30%

**Q.** Which results are given for (-)-Indolactam V?
**A.** EC50 [1, 12]: 1.56 µM; CPE % Efficacy [1, 13]: 74.4%; % Cytotox ([3]; cytotoxicity counter-assay): 20.4%; CC50 ([3]; cytotoxicity counter-assay): 1.24 µM

**Q.** Which “CPE % Efficacy” value [1, 10] does the source give for GSK 9027 here?
**A.** 104.1%

**Q.** What about the EC50 [1, 10] of the same molecule?
**A.** 12.6 µM

**Q.** What about the “% Cytotox” value ([3]; cytotoxicity counter-assay) of the same molecule?
**A.** 24.3%

**Q.** Which EC50 [1, 12] does the source give for HBX 19818 here?
**A.** 7.94 µM

**Q.** And the “CPE % Efficacy” value [1, 13]?
**A.** 80.9%

**Q.** What about the “% Cytotox” value ([3]; cytotoxicity counter-assay) of the same molecule?
**A.** 39.1%
